According to ChEMBL document CHEMBL1629647, “Preclinical evaluation of GS-9160, a novel inhibitor of human immunodeficiency virus type 1 integrase” (Antimicrob Agents Chemother, 2009):

Tests used:
[1] = test system: Human immunodeficiency virus 1; assay: Antiviral activity against 0.02 MOI HIV1 3B infected in human MT-2 cells by two fold dilution method in presence of 100% human serum; assay type: functional, organism-based; conditions: Human immunodeficiency virus 1, 3B, MT2
[2] = Cytotoxicity against human SupT1 cells infected with HIV1 3B; assay type: cell-based, SUP-T1; conditions: SupT1 cells infected with HIV-1 3B
[3] = test system: Human immunodeficiency virus 1; assay: Antiviral activity against HIV1 infected in SupT1 cells assessed as accumulation of integrated junction products after 48 hrs by Alu-PCR assay; assay type: functional, organism-based; conditions: Human immunodeficiency virus 1, SUP-T1, 48 h
[4] = test system: Human immunodeficiency virus 1; assay: Selectivity ratio of EC50 for antiviral activity against NRTI-resistant HIV1 harboring RTK65R mutant gene to EC50 for antiviral activity against wild-type HIV1 3B; assay type: functional
[5] = test system: Human immunodeficiency virus 1; assay: Selectivity ratio of EC50 for antiviral activity against NNRTI-resistant HIV1 harboring RTY181C mutant gene to EC50 for antiviral activity against wild-type HIV1 3B; assay type: functional
[6] = test system: Human immunodeficiency virus 1; assay: Selectivity ratio of EC50 for antiviral activity against PI-resistant HIV1 harboring […], V82A and L90M mutant gene to EC50 for antiviral activity against wild-type HIV1 3B; assay type: functional
[7] = test system: Human immunodeficiency virus 1; assay: Selectivity ratio of EC50 for antiviral activity against GS-9160-resistant HIV1 selected after 9 passages to EC50 for antiviral activity against wild-type HIV1 3B; assay type: functional
[8] = test system: Human immunodeficiency virus 1; assay: Selectivity ratio of EC50 for antiviral activity against HIV1 harboring Q148K mutation in catalytic core domain of integrase to EC50 for antiviral activity against wild-type HIV1 3B; assay type: functional
[9] = test system: Human immunodeficiency virus 1; assay: Selectivity ratio of EC50 for antiviral activity against HIV1 harboring N155S mutation in catalytic core domain of integrase to EC50 for antiviral activity against wild-type HIV1 3B; assay type: functional
[10] = test system: Human immunodeficiency virus 1; assay: Selectivity ratio of EC50 for antiviral activity against HIV1 harboring L74M and E92V mutation in catalytic core domain of integrase to EC50 for antiviral activity against wild-type HIV1 3B; assay type: functional
[11] = test system: Human immunodeficiency virus 1; assay: Selectivity ratio of EC50 for antiviral activity against HIV1 harboring E138K and Q148K mutation in catalytic core domain of integrase to EC50 for antiviral activity against wild-type HIV1 3B; assay type: functional
[12] = Cytotoxicity against human uninfected MT2 cells by three fold dilution method in presence of 10% FBS
[13] = test system: Human immunodeficiency virus 1; assay: Antiviral activity against HIV1 3B infected in human MT-4 cells by two fold dilution method in presence of 10% FBS; assay type: functional, organism-based; conditions: Human immunodeficiency virus 1, 3B, MT4

Structure (SMILES) | EC50 [1] [nM] | CC50 [2] [nM] | EC50 [3] [nM] | Ratio EC50 [4] | Ratio EC50 [5] | Ratio EC50 [6] | Ratio EC50 [7] | Ratio EC50 [8] | Ratio EC50 [9] | Ratio EC50 [10] | Ratio EC50 [11] | CC50 [12] [nM] | EC50 [13] [nM]
O=C(NCc1ccc(F)cc1)c1nc(N2CCCCS2(=O)=O)c2cccnc2c1O | 96 | 1900 | 1.3 | 1 | 1 | 1 | 49 | 35 | 21 | 39 | 314 | 3000 | 
CN(c1c2c(c(O)c3ncccc13)C(=O)N(Cc1ccc(F)cc1)C2)S(C)(=O)=O | 19 | 600 | 0.9 | 1 | 1 | 1 | 51 | 23 | 12 | 67 | 250 | 4000 | 0.7
